Structures are written as SMILES.

Chain of fully phosphorylated, active Mouse ERK2 protein (P63085 whole entry): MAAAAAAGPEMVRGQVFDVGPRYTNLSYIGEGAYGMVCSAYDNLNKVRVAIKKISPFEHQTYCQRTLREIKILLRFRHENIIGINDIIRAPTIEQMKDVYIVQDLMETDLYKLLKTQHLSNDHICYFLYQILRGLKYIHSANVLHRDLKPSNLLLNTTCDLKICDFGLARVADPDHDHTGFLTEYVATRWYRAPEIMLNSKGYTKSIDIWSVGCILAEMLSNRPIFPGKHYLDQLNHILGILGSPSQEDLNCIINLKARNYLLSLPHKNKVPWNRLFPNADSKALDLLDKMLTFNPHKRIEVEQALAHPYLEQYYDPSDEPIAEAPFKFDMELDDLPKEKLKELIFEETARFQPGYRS

The test concerns the target fully phosphorylated, active Mouse ERK2 protein (Mus musculus (Mouse), UniProt P63085). The test is described as follows: Active ERK2 (aERK) IMAP assay, condition 1. The format is biochemical. The note with it: aERK assay condition 1, 30 μM ATP. The procedure:
Active ERK2 (aERK) Assay: (Unless Indicated Otherwise, the Data Provided for aERK was obtained using Condition 1)
Activated ERK2 activity was also determined in the IMAP assay format using the procedure outlined above. […] Reactions proceeded for 30 minutes before termination by addition of 60 μl IMAP detection beads in binding buffer. Plates were read as above after 30 minute binding equilibration.
By IC50 is commonly meant the concentration needed to halve the response being measured. For the compound `O=C(N[C@@H]1CCCN(Cc2ccccc2C(F)(F)F)C1)c1ccc2[nH]nc(-c3ccc4c(c3)CCO4)c2c1`, half-maximal inhibition (IC50) was put at 1 µM.

In turn, `COc1cccc(F)c1CN1C[C@@H](C)C[C@@H](NC(=O)c2ccc3[nH]nc(-c4ccc5nc(C)sc5c4)c3c2)C1` came in with an IC50 of 0.00367 µM. The value for `COc1cccc(F)c1CN1CCC[C@@H](NC(=O)c2ccc3[nH]nc(-c4ccc5nsnc5c4)c3c2)C1` was 0.175 µM. `COc1ccccc1CN1CC(NC(=O)c2ccc3[nH]nc(-c4ccncc4)c3c2)CC(F)(F)C1` (stereo not shown) yielded an IC50 of 0.167 µM. The value for `CN1CC(Cc2c(F)cccc2F)CC(NC(=O)c2ccc3[nH]nc(-c4nc5ccccc5s4)c3c2)C1` (stereo not shown) was 0.0225 µM; that for `O=C(N[C@@H]1CNCC[C@H]1c1ccccc1)c1ccc2[nH]nc(-c3ccc4c(c3)OCO4)c2c1` was 0.0271 µM; that for `CCN1CC(Cc2c(F)cccc2F)CC(NC(=O)c2ccc3[nH]nc(-c4ccc5nn(C)cc5c4)c3c2)C1` (stereo not shown) was 0.00309 µM. For the compound `CC(C)Oc1ccc(-c2n[nH]c3ccc(C(=O)N[C@@H]4CNCC[C@H]4c4ccccc4)cc23)cc1`, the IC50 is 0.0499 µM. `COC(=O)[C@@H]1CC[C@@H](NC(=O)c2ccc3[nH]nc(-c4ccncc4)c3c2)CN1` displayed an IC50 of 0.144 µM. Regarding `CC(C)C(NC(=O)[C@@H]1CC[C@@H](NC(=O)c2ccc3[nH]nc(-c4ccncc4)c3c2)CN1Cc1ccccc1)C(C)C`, 0.262 µM corresponded to half-maximal inhibition (IC50).

For `O=C(N[C@@H]1CNCC[C@H]1c1ccccc1)c1ccc2[nH]nc(-c3ccc4[nH]ncc4c3)c2c1`, the IC50 is 0.0137 µM.

Turning to `CN1C[C@@H](Cc2c(F)cccc2F)C[C@H](NC(=O)c2ccc3[nH]nc(-c4ccn5ccnc5c4)c3c2)C1`, inhibition was half-maximal at 0.15 µM (IC50).

`COc1cccc(F)c1CN1C[C@H](C)C[C@H](NC(=O)c2ccc3[nH]nc(-c4ccc5ncsc5c4)c3c2)C1` had an IC50 of 0.0152 µM.

`COc1cccc(F)c1CN1C[C@H](NC(=O)c2ccc3[nH]nc(-c4ccc5nccn5c4)c3c2)CC(F)(F)C1` had an IC50 of 0.0239 µM. The value for `COc1cccc(F)c1CN1C[C@H](NC(=O)c2ccc3[nH]nc(-c4ccc5nccn5c4)c3c2)C[C@H](C(F)(F)F)C1` [drawing 317] was 0.018 µM; that for `Cc1cc(-c2n[nH]c3ccc(C(=O)N[C@@H]4CCCN(CC(O)c5ccccc5F)C4)cc23)ccn1` (stereo partly shown) was 0.181 µM.

`O=C(N[C@@H]1CC[C@H](C(=O)NCc2ccccc2)NC1)c1ccc2[nH]nc(-c3ccncc3)c2c1` had an IC50 of 0.371 µM. `COc1cccc(F)c1CN1CC(NC(=O)c2ccc3[nH]nc(-c4ccnc(C)c4)c3c2)CCC1C` (stereo not shown): 0.0268 µM corresponded to half-maximal inhibition (IC50). The value for `CNC(=O)[C@@H]1CC[C@@H](NC(=O)c2ccc3[nH]nc(-c4ccncc4)c3c2)CN1Cc1c(F)cccc1OC` [drawing 383] was 0.00241 µM. `COc1cccc(F)c1CN1CCC[C@@H](NC(=O)c2ccc3[nH]nc(-c4ccc5nncn5c4)c3c2)C1` displayed an IC50 of 0.00646 µM.

The compound `COC[C@H]1CC[C@@H](NC(=O)c2ccc3[nH]nc(-c4ccncc4)c3c2)CN1Cc1c(F)cccc1OC` came in with an IC50 of 0.456 µM.

For the compound `O=C(N[C@@H]1CCCN(Cc2c(F)cccc2F)C1)c1ccc2[nH]nc(-c3ccc4c(c3)CCO4)c2c1`, the IC50 came to 0.173 µM. Compared with the last compound, the IC50 is about 2.6-fold lower. `COc1cccc(F)c1CN1CCC[C@@H](NC(=O)c2ccc3[nH]nc(-c4ccc5nc(C)nn5c4)c3c2)C1` displayed an IC50 of 0.0222 µM. The value for `O=C(NC1CN(Cc2ccccc2)CC(F)(F)C1)c1ccc2[nH]nc(-c3ccncc3)c2c1` (stereo not shown) was 0.144 µM; that for `O=C(N[C@@H]1CCCN(Cc2c(F)cccc2F)C1)c1ccc2[nH]nc(-c3ccncc3)c2c1` was 0.0362 µM; that for `COc1cccc(F)c1CN1CCC[C@@H](NC(=O)c2ccc3[nH]nc(-c4nc5ccccc5s4)c3c2)C1` was 0.296 µM.

Consider `CC(C)Oc1ccc(-c2n[nH]c3ccc(C(=O)N[C@@H]4CN(C)CC[C@H]4c4ccccc4)cc23)cc1`, for which the IC50 was found to be 0.3 µM.

In turn, `COCCOc1cccc(F)c1CN1CCC[C@@H](NC(=O)c2ccc3[nH]nc(-c4ccncc4)c3c2)C1` yielded an IC50 of 0.0169 µM. The value for `O=C(N[C@@H]1CCCN(Cc2c(F)cccc2F)C1)c1ccc2[nH]nc(-c3ccnc(Cl)c3)c2c1` was 0.0623 µM. On to `COc1cccc(F)c1CN1CCCC(NC(=O)c2ccc3[nH]nc(-c4ccnc(C)c4)c3c2)C1C` (stereo not shown), for which the IC50 worked out at 0.0669 µM. The IC50 values of the last two compounds are within 1.5-fold of each other. The same measure for `Cn1cnnc1CN1CCC[C@@H](NC(=O)c2ccc3[nH]nc(-c4ccncc4)c3c2)C1`: 0.231 µM; for `Cn1cc2cc(-c3n[nH]c4ccc(C(=O)N[C@@H]5C[C@H](C(F)(F)F)CN(Cc6c(F)cccc6F)C5)cc34)ccc2n1`: 0.0398 µM.

For `COc1cccc(F)c1CN1C[C@H](NC(=O)c2ccc3[nH]nc(-c4ccncc4)c3c2)CCC1CO` (stereo partly shown), it took 0.00358 µM to reach half-maximal inhibition (IC50). This IC50 lies about 11-fold lower than the previous one. The same measure for `CC(C)Oc1ccc(-c2n[nH]c3ccc(C(=O)N[C@@H]4CNCC[C@H]4c4ccccc4)cc23)cn1`: 0.0849 µM; for `O=C(N[C@@H]1CNCC[C@H]1c1ccccc1)c1ccc2[nH]nc(-c3ccc4c(c3)CCO4)c2c1`: 0.023 µM; for `Cc1nc2ccc(-c3n[nH]c4ccc(C(=O)N[C@@H]5C[C@@H](Cc6c(F)cccc6F)CN(C)C5)cc34)cn2n1`: 0.0476 µM. `O=C(NC12CC1CCN(Cc1ccccc1)C2)c1ccc2[nH]nc(-c3ccc4nccn4c3)c2c1` (stereo not shown) gave an IC50 of 0.2 µM. Compound `CN1CC(Cc2c(F)cccc2F)CC(NC(=O)c2ccc3[nH]nc(-c4ccn5ncnc5c4)c3c2)C1` (stereo not shown) returned an IC50 of 0.00383 µM.

In the case of `CCNC(=O)[C@@H]1CC[C@@H](NC(=O)c2ccc3[nH]nc(-c4ccncc4)c3c2)CN1Cc1ccccc1` [drawing 353], the IC50 was 0.0483 µM.

Compound `CN1CC(Cc2ccccc2)CC(NC(=O)c2ccc3[nH]nc(-c4ccncc4)c3c2)C1` (stereo not shown) returned an IC50 of 0.00834 µM. The value for `COc1cccc(F)c1CN1CCC2CC2(NC(=O)c2ccc3[nH]nc(-c4ccc5nccn5c4)c3c2)C1` (stereo not shown) was 0.086 µM; that for `O=C(NC1COCCN(CCc2c(F)cccc2F)C1)c1ccc2[nH]nc(-c3ccncc3)c2c1` (stereo not shown) was 0.0208 µM. The value for `COc1cccc(F)c1CN1C[C@H](NC(=O)c2ccc3[nH]nc(-c4ccc5nccn5c4)c3c2)C[C@@H](C(F)(F)F)C1` was 0.181 µM; that for `COc1cccc(F)c1CN1C[C@@H](C)C[C@@H](NC(=O)c2ccc3[nH]nc(-c4ccn5ncnc5c4)c3c2)C1` was 0.0151 µM; that for `O=C(NC1CCCCN(Cc2c(F)cccc2F)C1)c1ccc2[nH]nc(-c3ccncc3)c2c1` (stereo not shown) was 0.148 µM. With `Cc1nc2ccc(-c3n[nH]c4ccc(C(=O)N[C@@H]5C[C@H](Cc6c(F)cccc6F)CN(C)C5)cc34)cn2n1`, the IC50 was 0.00145 µM. The same measure for `COc1cccc(F)c1CN1CC(NC(=O)c2ccc3[nH]nc(-c4ccc5nccn5c4)c3c2)CCC1C1CC1` (stereo not shown): 0.0493 µM; for `CN1CC[C@@H](c2ccccc2)[C@H](NC(=O)c2ccc3[nH]nc(-c4ccc5c(c4)CCO5)c3c2)C1`: 0.119 µM; for `O=C(NC1CCCCN(Cc2ccccc2F)C1)c1ccc2[nH]nc(-c3ccncc3)c2c1` (stereo not shown): 0.0793 µM.

Compound `O=C(N[C@@H]1CC[C@@H](C(=O)NCc2ccccc2)N(Cc2ccccc2)C1)c1ccc2[nH]nc(-c3ccncc3)c2c1` [drawing 352] gave an IC50 of 0.0475 µM. On to `O=C(N[C@@H]1CCCN(Cc2ccc3occc3c2)C1)c1ccc2[nH]nc(-c3ccc4c(c3)CCO4)c2c1`, for which the IC50 was 0.0229 µM. Take `O=C(NC1COCCN(CCc2ccccc2F)C1)c1ccc2[nH]nc(-c3ccncc3)c2c1` (stereo not shown): the concentration for half-maximal inhibition (IC50) came out at 0.00984 µM. For `CN1C[C@@H](Cc2c(F)cccc2F)C[C@@H](NC(=O)c2ccc3[nH]nc(-c4ccc5nonc5c4)c3c2)C1`, the IC50 is 0.00882 µM. In turn, `O=C(NC1CN(Cc2ccccc2F)CC(F)(F)C1)c1ccc2[nH]nc(-c3ccncc3)c2c1` (stereo not shown) displayed an IC50 of 0.127 µM. The value for `O=C(NC1CCCCN(CCc2ccc(F)cc2)C1)c1ccc2[nH]nc(-c3ccncc3)c2c1` (stereo not shown) was 0.0981 µM. The value for `CN1CC(NC(=O)c2ccc3[nH]nc(-c4ccc5nccn5c4)c3c2)CCC1C1CC1` (stereo not shown) was 0.395 µM; that for `CN1C[C@H](NC(=O)c2ccc3[nH]nc(-c4ccncc4)c3c2)CC[C@H]1C(=O)NCc1ccccc1` was 0.35 µM; that for `O=C(NC1CCCCN(CCCc2ccccc2)C1)c1ccc2[nH]nc(-c3ccncc3)c2c1` (stereo not shown) was 0.0725 µM. Compound `CN1CC(Cc2c(F)cccc2F)CC(NC(=O)c2ccc3[nH]nc(-c4ccc5ncsc5c4)c3c2)C1` (stereo not shown) displayed a concentration for half-maximal inhibition (IC50) of 0.00271 µM. This IC50 lies about 27-fold lower than the previous one.

The compound `N#Cc1cccc(CN2CCC[C@@H](NC(=O)c3ccc4[nH]nc(-c5ccc6c(c5)CCO6)c4c3)C2)c1` displayed an IC50 of 0.999 µM.

Compound `COc1cccc(F)c1CN1CCC[C@@H](NC(=O)c2ccc3[nH]nc(-c4ccncc4)c3c2)C1` had an IC50 of 0.0139 µM. In turn, `Cn1cc2cc(-c3n[nH]c4ccc(C(=O)N[C@H]5CCN[C@H](Cc6ccccc6)C5)cc34)ccc2n1` displayed an IC50 of 0.0338 µM. The same measure for `O=C(N[C@@H]1CCCN(Cc2ncon2)C1)c1ccc2[nH]nc(-c3ccncc3)c2c1`: 0.0501 µM. Compound `CCN1CC[C@@H](c2ccccc2)[C@H](NC(=O)c2ccc3[nH]nc(-c4ccc(OC(C)C)nc4)c3c2)C1` gave a 50% inhibitory concentration (IC50) of 0.3 µM. The same measure for `Cc1cc(-c2n[nH]c3ccc(C(=O)NC4CC(Cc5c(F)cccc5F)CN(C)C4)cc23)ccn1` (stereo not shown) [N-(5-(2,6-difluorobenzyl)-1-methylpiperidin-3-yl)-3-(2-methylpyridin-4-yl)-1H-indazole-5-carboxamide]: 0.00481 µM. Consider `CCN1CC[C@@H](c2ccccc2)[C@H](NC(=O)c2ccc3[nH]nc(-c4ccc(OC(C)C)cc4)c3c2)C1`, for which the half-inhibitory concentration (IC50) was found to be 0.65 µM. The value for `CC(C)Oc1cc(-c2n[nH]c3ccc(C(=O)N[C@@H]4CNCC[C@H]4c4ccccc4)cc23)ccn1` was 0.141 µM. The same measure for `Cn1cc2cc(-c3n[nH]c4ccc(C(=O)N[C@H]5C[C@@H](C(F)(F)F)CN(Cc6c(F)cccc6F)C5)cc34)ccc2n1`: 0.375 µM; for `O=C(NC1CCCCN(Cc2ccccn2)C1)c1ccc2[nH]nc(-c3ccncc3)c2c1` (stereo not shown): 0.369 µM; for `Cc1cc(-c2n[nH]c3ccc(C(=O)N[C@@H]4CCCN(CC(F)(F)c5ccccc5F)C4)cc23)ccn1`: 0.17 µM.

Source of the values: patent US8999957B2, “Heterocyclic compounds as ERK inhibitors” (Merck Sharp & Dohme Corp., priority 2010, dated 2015).
